Measured values published in patent publication US20230391868A1, “COMPOSITIONS FOR AND METHODS OF TREATING CANCER” (The George Washington University, priority 2022, published 2023).

Key:
A31A7 macrophages = assay: Western Blotting of A31A7 macrophages polarized to M2; format: cell-based, mouse; conditions: Western Blot, M2 A31A7 (FIG. 7F)
Protocol: Cells were treated with the respective compounds for 24 h. Then, cells were lysed using RIPA buffer (ThermoFisher Scientific Pierce, 89901, Waltham, MA) supplemented with 1× protease and phosphatase inhibitor (ThermoFisher Scientific, A32961). Lysates were sonicated at 4° C. for 8 minutes (8 cycles of 30 sec on, 30 sec off). Protein concentration was quantified using a BCA protein assay (ThermoFisher Scientific, 23225) following manufacturer's instructions. Samples were mixed with 6× Laemmli SDS sample reducing buffer (Alfa Aesar, J61337AC, Tewksbury, MA), and boiled at 80° C. for 10 min. Next, samples were loaded on to 4%-20% gels (Bio-Rad, 4561096, Hercules, CA), transferred to PVDF membranes and blocked with Odyssey Blocking Buffer (LI-COR Biosciences, 927-40000, Lincoln, NE). The following primary antibodies used for immunoblotting were purchased from Cell Signaling Technologies (Danvers, MA): tubulin (3873), acetylated tubulin (3971), arginase-1 (93668), and SIRPα (13379). Primary antibody recognizing HDAC6 was purchased from Assay Biotechnology (C0226, Fremont, CA), and iNOS antibody was purchased from ThermoFisher Scientific (PA3-030A). Bands were detected using Azure Biosystems Imaging System c600 (Azure Biosystems, Dublin, CA).

SIRPα = assay: Cell surface SIRPα expression by flow cytometry; format: cell-based, mouse; conditions: A31A7 macrophages and BMDMs; flow cytometry (FIG. 2C)
Protocol: Cell surface expression of CD47 in melanoma cells was evaluated using PE anti-mouse CD47 (clone miap301, […], Biolegend), PE anti-human CD47 (clone CC2C6, 323108, Biolegend), and their respective isotype controls (400508, 400113, respectively, Biolegend). SIRPα was evaluated using APC anti-mouse CD172a (SIRPα) antibody (clone P84, 144014, Biolegend) or APC anti-human CD172a/b (SIRPα/β) antibody (clone SE5A5, 323810, Biolegend) and their respective isotype controls (400411, Biolegend).

mouse CD47 promoter = assay: CD47-luciferase reporter assay in SM1 melanoma cells; format: cell-based; conditions: SM1 transfected with CD47-luciferase reporter; NextA at different concentrations (FIG. 3D)
Protocol: The mouse CD47 or SIRPα promoters were cloned into a promoterless pGL4.20[luc2/puro] vector using Genentech's cloning services (San Francisco, CA, USA). Vectors were transfected into SM1 and B16 melanoma cells using Lipofectamine 3000 (L3000008, ThermoFisher) and transfected cells were selected using puromycin. A31A7 macrophages were transiently transfected using jetOPTIMUS DNA transfection reagent (Polyplus, NY, USA). Luminescence was measured using the Luciferase Assay System (E4550, Promega) in a SpectraMax i3× Multi-Mode Microplate Reader (Molecular Devices).
Furthermore, to investigate whether HDAC6 controls CD47 expression at the transcriptional level, the mouse CD47 promoter was cloned into a promoterless pGL4.20[luc2/puro] vector. SM1 melanoma cells were transfected with the CD47-luciferase reporter vector and stimulated with IFNγ in the absence or presence of NextA at different concentrations and measured luminescence. Treatment with NextA repressed IFNγ-mediated upregulation of Cd47 (FIG. 3D).

SM1 melanoma cells = assay: Flow cytometry-based phagocytosis assay, BMDMs co-cultured with SM1 cells; format: cell-based, mouse; conditions: NextA treated vs untreated macrophages (FIG. 4)
Protocol: To evaluate phagocytosis by flow cytometry, SM1 melanoma cells were co-cultured with A3.1A7 cells or BMDMs derived from wild-type C57/Bl6 mice at a 2:1 ratio for 2 hr. or 4 hr. in serum-free media. Twenty-four (24) hours prior to co-culture, macrophages were polarized to their respective phenotypes as previously described in the presence or absence of NextA, and melanoma cells were untreated or treated with NextA. On the day of the co-culture, melanoma cells were stained with 1 μM of CellTrace™ CFSE Cell Proliferation Kit (ThermoFisher, C34554) and were washed extensively to remove excess dye. Phagocytosis assays were carried out in the presence of anti-mouse CD47 (clone miap301, 127502, Biolegend, San Diego, CA) and its respective isotype control (IgG, 400502, Biolegend), or anti human CD47 (clone CC2C6, 323102, Biolegend) or isotype control (MOPC-21, BE0083, Biolegend) at 25 μg/mL. Co-culture was set up in non-cell culture treated 96 U-well plates. […]
Flow cytometry data was acquired a BD FACS Celesta Cell Analyzer, and data analysis was performed with FlowJo software version 10.3. Phagocytosis was determined as the percentage of CFSE+F4/80+ or CFSE+ CD11b+ cells out of total F4/80+ or total CD11b+ cells. […]

B16F10 melanoma tumors = assay: B16F10 melanoma tumor growth in vivo; set-up: species or system mouse; conditions: B16F10-bearing mice; legend: NextA 25 mg/kg IP, αCD47 50 μg IT (FIG. 10A)
Text: The antitumor effects of the combination therapy were also observed in the B16F10 melanoma model following the same experimental protocol as in the SM1 model. […] Regarding the immunophenotyping of tumors, there were no significant differences in the immune cell populations in the B16 TME by flow cytometry (FIG. 10B-FIG. 10E). Thus, the discrepancies between the SM1 and B16F10 tumor models could be explained by the scarce infiltration of immune cells in the TME of B16F10 tumors compared to SM1 tumors (5% versus 15%, respectively, FIG. 10F) as well as the poor immunogenicity of B16 tumors.

`CCCCN(Cc1ccc(C(=O)NO)cc1)C(=O)Nc1ccccc1` [NextA, Nexturastat A] was tested. Which ARG1 expression (A31A7 macrophages) did it give?
The ARG1 expression was “decrease”.

And the “HDAC6 inhibitor potency compared with Tubacin and Tubastatin A” value (A31A7 macrophages)?
Its value is “most potent HDAC6 inhibitor”.

What about the “acetylated tubulin, a marker for HDAC6 inhibition” value (A31A7 macrophages) of the same compound?
The value was “robust increase”.

What about the “SIRPα expression on the cell surface” value (SIRPα) of the same compound?
The value was “significantly decreased”.

And the “IFNγ-mediated upregulation of Cd47 (luminescence)” value (mouse CD47 promoter)?
The value was “repressed”.

And the “phagocytic capacity of macrophages” value (SM1 melanoma cells)?
The value was “enhanced the phagocytic capacity”.

What about the “B16 melanoma tumor growth” value (B16F10 melanoma tumors) of the same compound?
The value was “did not decrease”.
